Measured values from patent publication US12258354B2, “AhR modulators” (IDEAYA BIOSCIENCES, INC., priority 2018, dated 2025).

Target: T1, hAhR (Homo sapiens, UniProt P35869)
T1 construct: Stably integrated DRE-luciferase cell lines were generated by transducing the both cell lines with Cignal XRE luciferase reporter; endogenous in cells; host or cells: HEPG2 DRE-Luc cells (only the XRE luciferase reporter was transduced)
T1 sequence (P35869 11-848): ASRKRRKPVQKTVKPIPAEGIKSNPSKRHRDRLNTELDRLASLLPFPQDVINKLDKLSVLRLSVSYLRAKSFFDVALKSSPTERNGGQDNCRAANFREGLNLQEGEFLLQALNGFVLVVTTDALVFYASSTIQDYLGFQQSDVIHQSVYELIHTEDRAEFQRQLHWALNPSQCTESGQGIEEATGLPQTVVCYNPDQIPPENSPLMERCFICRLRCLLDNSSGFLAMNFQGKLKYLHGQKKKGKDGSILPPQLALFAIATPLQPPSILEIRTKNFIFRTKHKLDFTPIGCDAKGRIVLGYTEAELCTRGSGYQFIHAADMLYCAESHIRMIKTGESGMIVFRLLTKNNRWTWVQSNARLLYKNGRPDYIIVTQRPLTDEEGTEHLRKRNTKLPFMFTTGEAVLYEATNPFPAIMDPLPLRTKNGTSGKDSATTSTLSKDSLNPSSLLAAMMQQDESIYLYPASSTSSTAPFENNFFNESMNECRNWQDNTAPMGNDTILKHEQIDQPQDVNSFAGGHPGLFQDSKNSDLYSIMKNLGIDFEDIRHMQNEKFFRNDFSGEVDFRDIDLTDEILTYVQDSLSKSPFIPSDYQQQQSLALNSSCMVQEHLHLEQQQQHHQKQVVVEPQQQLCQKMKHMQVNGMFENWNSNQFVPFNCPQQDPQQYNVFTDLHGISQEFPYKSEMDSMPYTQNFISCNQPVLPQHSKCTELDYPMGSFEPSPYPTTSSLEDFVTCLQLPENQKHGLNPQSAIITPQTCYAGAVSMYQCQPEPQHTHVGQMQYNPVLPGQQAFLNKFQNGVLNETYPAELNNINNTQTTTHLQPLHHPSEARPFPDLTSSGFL
Assay: DRE-luciferase transcriptional reporter assay in HEPG2 DRE-Luc cells, TCDD-induced (antagonist mode)
Assay type: cell-based
Details: relative IC50, 3 nM TCDD, 24-hour incubation, firefly luciferase readout
Procedure: HEPG2 and HEPA1C1C7 cells were maintained in MEM and αMEM without nucleosides supplemented with 10% heat inactivated FBS respectively. Stably integrated DRE-luciferase cell lines were generated by transducing the both cell lines with Cignal XRE luciferase reporter (Qiagen) lentiviral particles according to the manufacturer protocol. For both cell lines stably integrated reporter cell lines were selected for the presence of 2 μg/mL puromycin. Following selection of stably integrated cell line pools, clonal cell lines were isolated by limiting dilution in 96-well plates. Transcriptional assays were performed by seeding 100 μL of cells at a density of 250,000 or 100,000 cells/mL, for HEPG2 and HEPA1C1C7 DRE-Luc cells respectively, into 96-well cell culture plates in OptiMEM supplemented with 0.5% heat inactivated FBS and allowed to attach overnight. For modulator assays, the compounds were added in a semi-log dose response using a D300e Digital Dispenser (Tecan) followed normalization with vehicle (DMSO). Immediately following compound addition 10 μL of 2,3,7,8-Tetrachlorodibenzo-p-dioxin (TCDD) was added to the cells to a final concentration of 3 nM or 0.3 nM for the HEPG2 and HEPA1C1C7 DRE-Luc cells respectively. Following 24-hour incubation, the medium was removed and the cells were lysed in 25 μL of Reporter Lysis Buffer (Promega). Firefly luciferase activity was measured immediately following the addition of 50 μL Luciferase Assay Reagent (Promega). The percent maximal activity for each point was determined using the following equation: (RLUsample−RLUvehicle−TCDD)/(RLUvehicle+TCDD RLUvehicle−TCDD)*100. The relative IC50, defined as the compound concentration required to reduce the TCDD induced response between the top and bottom plateau of each individual dose response curve by half, for each compound was determined using Prism 7 (GraphPad Software).

Compound	IC50 [µM]
Cc1cc(-c2ncc3cc(C(F)(F)F)ccc3n2)ccc1N1CCn2nc(CN3CCN(C)C(=O)C3)c(C)c2C1=O [Example 104, 3-methyl-2-((4-methyl-3-oxopiperazin-1-yl)methyl)-5-(2-methyl-4-(6-(trifluoro-methyl)quinazolin-2-yl)phenyl)-6,7-dihydropyrazolo[1,5-a]pyrazin-4 (5H)-one]	< 0.2
Cc1cc(-c2ncc3nc(C(F)(F)F)ccc3n2)ccc1N1CCn2nc(CN3CCOCC3)c(C)c2C1=O [Example 105, 3-methyl-5-(2-methyl-4-(6-(trifluoromethyl)pyrido[3,2-d]pyrimidin-2-yl)phenyl)-2-(morpholinomethyl)-6,7-dihydropyrazolo[1,5-a]pyrazin-4 (5H)-one]	< 0.2
Cc1cc(-c2ccc3nc(C(F)(F)F)ccc3n2)ccc1N1CCn2nc(CN3CCOCC3)c(C)c2C1=O [Example 106, 3-methyl-5-(2-methyl-4-(6-(trifluoromethyl)-1,5-naphthyridin-2-yl)phenyl)-2-(morpholinomethyl)-6,7-dihydropyrazolo[1,5-a]pyrazin-4 (5H)-one]	< 0.2
Cc1cc(-c2ncc3cc(C(F)(F)F)ccc3n2)ccc1N1CCn2nc(C(=O)N3CCN(C)CC3)c(C)c2C1=O [Example 107, 3-methyl-5-(2-methyl-4-(6-(trifluoromethyl)quinazolin-2-yl)phenyl)-2-(4-methylpiperazine-1-carbonyl)-6,7-dihydropyrazolo[1,5-a]pyrazin-4 (5H)-one]	< 0.2
Cc1cc(-c2ncc3cc(C(F)(F)F)ccc3n2)ccc1N1CCn2nc(CN3CCC(F)(F)CC3)c(C)c2C1=O [Example 108, 2-((4,4-difluoropiperidin-1-yl)methyl)-3-methyl-5-(2-methyl-4-(6-(trifluoro-methyl)quinazolin-2-yl)phenyl)-6,7-dihydropyrazolo[1,5-a]pyrazin-4 (5H)-one]	< 0.2
Cc1cc(-c2ncc3cc(C(F)(F)F)ccc3n2)ccc1N1CCn2nc(CN3CCCC4(COC4)C3)c(C)c2C1=O [Example 110, 2-((2-oxa-6-azaspiro[3.5]nonan-6-yl)methyl)-3-methyl-5-(2-methyl-4-(6-(trifluoro-methyl)quinazolin-2-yl)phenyl)-6,7-dihydropyrazolo[1,5-a]pyrazin-4 (5H)-one]	< 0.2
Cc1cc(-c2ncc3cc(C(F)(F)F)ccc3n2)ccc1N1CCn2nc(CN3CCC4(COC4)C3)c(C)c2C1=O [Example 111, 2-((2-oxa-6-azaspiro[3.4]octan-6-yl)methyl)-3-methyl-5-(2-methyl-4-(6-(trifluoromethyl)quinazolin-2-yl)phenyl)-6,7-dihydropyrazolo[1,5-a]pyrazin-4 (5H)-one]	< 0.2
Cc1cc(-c2ncc3cc(C(F)(F)F)ccc3n2)ccc1N1CCn2nc(C(C)N3CCOCC3)c(C)c2C1=O (stereo not drawn) [Example 112, 3-methyl-5-(2-methyl-4-(6-(trifluoromethyl)quinazolin-2-yl)phenyl)-2-(1-morpholinoethyl)-6,7-dihydropyrazolo[1,5-a]pyrazin-4 (5H)-one]	< 0.2
Cc1cc(-c2ncc3cc(C(F)(F)F)ccc3n2)ccc1N1CCn2nc(N)c(C)c2C1=O [Example 113, 2-amino-3-methyl-5-(2-methyl-4-(6-(trifluoromethyl)quinazolin-2-yl)phenyl)-6,7-dihydropyrazolo[1,5-a]pyrazin-4 (5H)-one]	< 0.2

Now from value to compound:

IC50 [µM]	Compound
< 0.2	2-((2-hydroxy-2-azaspiro[3.3]heptan-2-yl)methyl)-3-methyl-5-(2-methyl-4-(6-(trifluoromethyl)pyrido[3,2-d]pyrimidin-2-yl)phenyl)-6,7-dihydropyrazolo[1,5-a]pyrazin-4 (5H)-one [Example 109]
< 0.2	Cc1cc(-c2ncc3cc(C(F)(F)F)ccc3n2)ccc1N1CCn2ncc(C)c2S1(=O)=O [Example 93, 8-methyl-2-(2-methyl-4-(6-(trifluoromethyl)quinazolin-2-yl)phenyl)-3,4-dihydro-2H-pyrazolo[1,5-e][1,2,5]thiadiazine 1,1-dioxide]
< 0.2	Cc1cc(-c2ncc3cc(C(F)(F)F)ccc3n2)ccc1N1CCn2ncc(C3NC(=O)NC3=O)c2C1=O (stereo not drawn) [Example 94, 5-(5-(2-methyl-4-(6-(trifluoromethyl)quinazolin-2-yl)phenyl)-4-oxo-4,5,6,7-tetrahydropyrazolo[1,5-a]pyrazin-3-yl)imidazolidine-2,4-dione]
< 0.2	Cc1cc(-c2ncc3cc(C(F)(F)F)ccc3n2)ccc1N1CCn2nc(CN3CCO[C@H](C)C3)c(C)c2C1=O [Example 95, (R)-3-methyl-5-(2-methyl-4-(6-(trifluoromethyl)quinazolin-2-yl)phenyl)-2-((2-methylmorpholino)methyl)-6,7-dihydropyrazolo[1,5-a]pyrazin-4 (5H)-one]
< 0.2	Cc1cc(-c2ncc3cc(C(F)(F)F)ccc3n2)ccc1N1CCn2nc(CN3CCO[C@@H](C)C3)c(C)c2C1=O [Example 96, (S)-3-methyl-5-(2-methyl-4-(6-(trifluoromethyl)quinazolin-2-yl)phenyl)-2-((2-methylmorpholino)methyl)-6,7-dihydropyrazolo[1,5-a]pyrazin-4 (5H)-one]
< 0.2	Cc1cc(-c2ncc3cc(C(F)(F)F)ccc3n2)ccc1N1CCn2nc(COP(=O)(O)O)c(C)c2C1=O [Example 97, (3-methyl-5-(2-methyl-4-(6-(trifluoromethyl)quinazolin-2-yl)phenyl)-4-oxo-4,5,6,7-tetrahydropyrazolo[1,5-a]pyrazin-2-yl)methyl dihydrogen phosphate]
< 0.2	Cc1cc(-c2ncc3cc(C(F)(F)F)ccc3n2)ccc1N1CCn2nc(CN3CCC(=O)CC3)c(C)c2C1=O [Example 98, 3-methyl-5-(2-methyl-4-(6-(trifluoromethyl)quinazolin-2-yl)phenyl)-2-((4-oxopiperidin-1-yl)methyl)-6,7-dihydropyrazolo[1,5-a]pyrazin-4 (5H)-one]
< 0.2	Cc1cc(-c2ncc3cc(C(F)(F)F)ccc3n2)ccc1N1CCn2nc(CN3CCC(F)CC3)c(C)c2C1=O [Example 99, 2-((4-fluoropiperidin-1-yl)methyl)-3-methyl-5-(2-methyl-4-(6-(trifluoromethyl)-quinazolin-2-yl)phenyl)-6,7-dihydropyrazolo[1,5-a]pyrazin-4 (5H)-one]
< 0.2	Cc1cc(-c2ncc3cc(C(F)(F)F)ccc3n2)ccc1N1CCn2nc(CN3CCC(O)CC3)c(C)c2C1=O [Example 100, 2-((4-hydroxypiperidin-1-yl)methyl)-3-methyl-5-(2-methyl-4-(6-(trifluoromethyl)-quinazolin-2-yl)phenyl)-6,7-dihydropyrazolo[1,5-a]pyrazin-4 (5H)-one]
< 0.2	Cc1cc(-c2ncc3cc(C(F)(F)F)ccc3n2)ccc1N1CCn2nc(CN3CCS(=O)(=O)CC3)c(C)c2C1=O [Example 101, 2-((1,1-dioxidothiomorpholino)methyl)-3-methyl-5-(2-methyl-4-(6-(trifluoro-methyl)quinazolin-2-yl)phenyl)-6,7-dihydropyrazolo[1,5-a]pyrazin-4 (5H)-one]
< 0.2	Cc1cc(-c2ncc3cc(C(F)(F)F)ccc3n2)ccc1N1CCn2nc(CN3CCC4(CC3)COC4)c(C)c2C1=O [Example 102, 2-((2-oxa-7-azaspiro[3.5]nonan-7-yl)methyl)-3-methyl-5-(2-methyl-4-(6-(trifluoromethyl)quinazolin-2-yl)phenyl)-6,7-dihydropyrazolo[1,5-a]pyrazin-4 (5H)-one]
< 0.2	Cc1cc(-c2ncc3cc(C(F)(F)F)ccc3n2)ccc1N1CCn2nc(CN3CCN(C)CC3)c(C)c2C1=O [Example 103, 3-methyl-5-(2-methyl-4-(6-(trifluoromethyl)quinazolin-2-yl)phenyl)-2-((4-methyl-piperazin-1-yl)methyl)-6,7-dihydropyrazolo[1,5-a]pyrazin-4 (5H)-one]
